Measurements: patent US6200966A, “Compositions for inhibiting airway wall inflammation” (Amrad Operations Pty. Ltd., priority 1996, dated 2001)
Entries after “also recorded” stand apart in the source; their conditions may differ.

Experiments:
[1] = tested on: Human polymorphonuclear leukocytes; assay: Phagocytosis: radioiodination of zymosan particles (125I uptake); assay type: cell-based
Experimental: Data are expressed as percentage of ^125 I incorporation into glass
fiber-filterable material. Assays were carried out using 1 ×

[2] = tested on: polymorphonuclear leukocytes (PMN); assay: Superoxide anion generation in PMN; assay type: cell-based, human; details: fMLP (100 nM) or zymosan (400 μg/ml); up to 10 μM
[3] = tested on: adherent monocytes; assay: Superoxide anion generation in adherent monocytes; assay type: cell-based, human
[4] = tested on: guinea-pig peritoneal macrophages; assay: Prostacyclin (6-oxo-PGF1α) release in peritoneal macrophages; assay type: cell-based
Experimental: Cells were incubated with stimuli including the chemotactic tripeptide, formyl methiony leucyl Phenylalanine (fMLP, 100 nM), Zymosan (400 μg/ml) or phorbol myristate acetate (PMA, 100 nM) for 30 min in the presence or absence of 2-methoxyestradiol (10 μM) added 15 min before the stimuli. […] All individual incubations were carried out in duplicate and experiments were carried out in macrophages from 5 guinea-pigs.

[5] = tested on: RBL2H3 cells; assay: Mast cell degranulation: [3H]-5HT release; assay type: cell-based; details: for DNP-OA-stimulated release of [3H]-5HT: ovalbumin (DNP-OA), 10 μM
Experimental: RBL2H3 cells were cultured in RPMI 1640 containing 10% FCS and were passaged into 24 well plates for experiments. The cells were sensitised by a 48 hour incubation with 50% (V/V) conditioned medium from a lymphoid cell line secreting anti-DNP ovalbumin antibody. During the last 24 hours of this incubation [^3 H]-5HT (1 μCi/ml) was added to each of the wells to label granular amine stores. At the end of the incubation period, the medium was aspirated, the cells were washed twice in RPMI 1640 and incubated in RPMI 1640 (0.25% BSA) in the absence or presence of 2-methyoxyoestradiol for 15 mins prior to stimulation with DNP-treated ovalbumin, A23187 or PMA for 30 mins at which time the supernatants were harvested, subjected to centrifugation (1000×g, 4° C., 5 min) and aliquots taken for determination of the amount of [^3 H]-5HT released. All experiments were carried out in quadruplicate.

[6] = tested on: human cultured airway smooth muscle cells; assay: Cell counting (increase in cell number); assay type: cell-based; details: FCS (1%) or bFGF (300 pM); 3 μM; 48 h
Experimental: Human bronchial airway smooth muscle was obtained from macroscopically normal lung resection specimens from lung transplant donors or recipients provided by the Alfred Hospital (Melbourne). Cultures were prepared as previously described in detail (Tomlinson et al., 1994). […]
The progression of airway smooth muscle cells through the cell-cycle to mitosis was determined by measuring changes in cell number in experiments of analogous design to those used for DNA synthesis, except that the incubations with mitogen were continued for 48 hours. […] At the end of this period, a further 200 μl of PBS (20% FCS) was added to prevent cell lysis by trypsin and cells were counted directly in a haemocytometer.
Each treatment in an individual experiment was carried out in quadruplicate for DNA and protein synthesis experiments. […] Results are presented as grouped data from multiple cultures and are expressed as mean ±S. E. of n cultures. The degree of increment was calculated by dividing the response of treated wells by that of the control wells on the same 24-well plate. The grouped data was analysed by paired t-test after normalisation by log transformation. […]

[7] = tested on: airway smooth muscle cells; assay: Morphological changes (cell rounding); assay type: cell-based, human
[8] = tested on: airway smooth muscle cells; details: 10 μM
[9] = tested on: certain transformed cell lines; details: Lottering et al., 1992; cited from earlier work
[10] = tested on: tumours; details: cited from earlier work
[11] = tested on: pig endometrial cell cultures; details: Zhang & Davis, 1992; cited from earlier work
[12] = tested on: vascular smooth muscle; details: Goyache et al., 1995; cited from earlier work
[13] = tested on: glucocorticoid receptors; details: Merriam et al, 1980; cited from earlier work
[14] = tested on: oestrogen receptors; details: Merriam et al, 1980; cited from earlier work

COc1cc2c(cc1O)CC[C@@H]1[C@@H]2CC[C@]2(C)[C@@H](O)CC[C@@H]12 [2-methoxyestradiol, 1,3,5[10]-estratriene-2,3,17-triol 2-methylether]
125I uptake ([1]; 3 μM, PHS (pooled human serum), control (basal 2.13)): 1.87 percentage of ^125 I incorpora | 125I uptake ([1]; 3 μM, PHS, zymosan (basal 4.33)): 3.27 percentage of ^125 I incorpora | 125I uptake ([1]; 3 μM, no PHS, control (basal 1.80)): 1.97 percentage of ^125 I incorpora | 125I uptake ([1]; 3 μM, no PHS, zymosan (basal 2.83)): 1.97 percentage of ^125 I incorpora | 125I uptake ([1]; 10 μM, PHS, control (basal 2.13)): 1.75 percentage of ^125 I incorpora | 125I uptake ([1]; 10 μM, PHS, zymosan (basal 4.33)): 1.65 percentage of ^125 I incorpora | 125I uptake ([1]; 10 μM, no PHS, control (basal 1.80)): 2.05 percentage of ^125 I incorpora | 125I uptake ([1]; 10 μM, no PHS, zymosan (basal 2.83)): 1.80 percentage of ^125 I incorpora | radioiodination of zymosan particles by PMN (phagocytosis) ([1]; 3 and 10 μM): significant effects being observed at both 3 and 10 μM | phagocytic activity of polymorphonuclear leukocytes ([1]; human peripheral blood): reduction of phagocytic activity | superoxide anion generation in PMN [2]: not reduced | superoxide anion generation in adherent monocytes, PMA ([3]; response to PMA): unaffected | superoxide anion generation in adherent monocytes, zymosan ([3]; zymosan-stimulated, 10 μM, at least some donors): markedly inhibited | inhibition at 10 µM ([4]; Cavia porcellus, Peritoneal macrophage, 0.5 h, PMA (100 nM), read-out: reduction of 6-oxo-PGF1α / prostacyclin response, PMA): 50% | 6-oxo-PGF1α / prostacyclin generation, fMLP ([4]; fMLP (100 nM), 10 μM): completely blocked | release of [3H]-5HT, basal or PMA or A23187 ([5]; basal, PMA (100 nM), A23187 (10 μM)): unaffected; also recorded: did not affect release in response to PMA | DNP-OA-stimulated release of [3H]-5HT [5]: reduced | DNP-OA-stimulated release of [3H]-5HT ([5]; listed as 2-methoxyoestradiol): inhibits degranulation | increase in cell number [6]: complete inhibition | onset of shape changes ([7]; 3 and 10 μM): ≤ 6 h | morphological changes ([7]; 3 and 10 μM (2-methoxyestradiol)): rounded appearance of the normally spindle-shaped cells | cell detachment from the culture plates [8]: no cell detachment | protein synthesis rates (as evidence against cytotoxicity) [8]: not altered | proliferation of transformed cell lines [9]: inhibits proliferation | growth of tumours ([10]; Fotsis et al., 1994): inhibited the growth of tumurs | tumour neovascularization ([10]; Klauber et al, 1997): Inhibition of tumour neovascularization | synthesis of PGF2α [11]: inhibits the synthesis of PGF2α | vascular smooth muscle relaxation [12]: relaxation of vascular smooth muscle | affinity for glucocorticoid receptors [13]: not to have significant affinity | affinity for oestrogen receptors [14]: not to have significant affinity
